Compound `*c1ccc(-c2cc(C)c(-c3ccc(*)c(C)c3)cc2C)cc1C` (repeat unit) showed a CH4 permeability of 1.1 Barrer, an H2 permeability of 51 Barrer, an N2 permeability of 1.6 Barrer and an O2 permeability of 8.6 Barrer.
The compound `*C(=C(*)c1ccc([Si](C)(C)CCCCCCCC)cc1)c1ccc(C(C)C)cc1` (repeat unit) yielded a CO2 permeability of 120 Barrer, an N2 permeability of 9.1 Barrer and an O2 permeability of 29 Barrer.
As for `*c1c(C)cc2c(c1C)C1c3ccccc3C2c2cc(C)c(N3C(=O)c4ccc5c6c(ccc(c46)C3=O)C(=O)N(*)C5=O)c(C)c21` (repeat unit), the CH4 permeability was 122 Barrer, the CO2 permeability stood at 1860 Barrer, the H2 permeability was found to be 1480 Barrer and the N2 permeability came to 97 Barrer. In addition, the O2 permeability amounted to 390 Barrer.
For `*CC(*)c1ccc(F)cc1` (repeat unit), the CH4 permeability came out at 1.06 Barrer, the CO2 permeability is 17.2 Barrer, the N2 permeability was 0.83 Barrer and the O2 permeability came out at 4.4 Barrer.
Consider `*Oc1c(Br)cc(C(c2cc(Br)c(OC(*)=O)c(Br)c2)(C(F)(F)F)C(F)(F)F)cc1Br` (repeat unit), for which the CH4 permeability is 0.89 Barrer, the CO2 permeability amounted to 32 Barrer, the H2 permeability was determined as 10.6 Barrer and the N2 permeability worked out at 1.8 Barrer. Further, the O2 permeability came out at 9.7 Barrer.
`*Cc1ccc(C*)c(Br)c1` (repeat unit): the CO2 permeability was 0.036 Barrer and the H2 permeability stood at 0.452 Barrer.
`*c1ccc(-c2ccc(Oc3ccc(C4(c5ccc(Oc6ccc(-c7ccc(N8C(=O)c9ccc(C(c%10ccc%11c(c%10)C(=O)N(*)C%11=O)(C(F)(F)F)C(F)(F)F)cc9C8=O)cc7)cc6C(F)(F)F)cc5)c5ccccc5C(=O)N4c4ccccc4)cc3)c(C(F)(F)F)c2)cc1` (repeat unit): the CH4 permeability was 1.01 Barrer, the CO2 permeability worked out at 53.9 Barrer, the N2 permeability was 1.71 Barrer and the O2 permeability turned out to be 10.2 Barrer.
Turning to `*C(=C(*)c1ccccc1)c1ccccc1` (repeat unit), the CH4 permeability was determined as 3700 Barrer, the CO2 permeability stood at 6600 Barrer, the N2 permeability came to 2720 Barrer and the O2 permeability was 3600 Barrer.
`*c1ccc(Oc2ccc(C(C)(C)c3ccc(Oc4ccc(N5C(=O)c6ccc(Oc7ccc8c(c7)C(=O)N(*)C8=O)cc6C5=O)cc4)cc3)cc2)cc1` (repeat unit) had a CO2 permeability of 2.7 Barrer, an H2 permeability of 8 Barrer, an N2 permeability of 0.07 Barrer and an O2 permeability of 0.49 Barrer.
Consider `*Oc1ccc(C23CC4CC(C2)CC(c2ccc(Oc5ccc(S(=O)(=O)c6ccc(*)cc6)cc5)cc2)(C4)C3)cc1` (repeat unit), for which the CH4 permeability was determined as 0.396 Barrer, the CO2 permeability is 9.5 Barrer, the H2 permeability is 27.8 Barrer and the N2 permeability was found to be 0.455 Barrer. The O2 permeability worked out at 2.55 Barrer.
For `*=CC1CC(C=*)C2C(=O)N(c3ccccc3)C(=O)C12` (repeat unit) the same measures were 0.54 Barrer, 11.4 Barrer, 11 Barrer, 0.31 Barrer and 1.44 Barrer.
In turn, `*c1ccc2c(c1)C(=O)N(c1ccc(Oc3ccc(N4C(=O)c5ccc(-c6nc7ccc(Cc8ccc9nc(*)oc(=O)c9c8)cc7c(=O)o6)cc5C4=O)cc3)cc1)C2=O` (repeat unit) had a CO2 permeability of 0.26 Barrer and an H2 permeability of 2.56 Barrer.
In the case of `*Oc1ccc(C(c2ccc(OC(=O)c3cc(C(*)=O)cc(C(C)(C)C)c3)cc2)(C(F)(F)F)C(F)(F)F)cc1` (repeat unit), the CH4 permeability stood at 3.47 Barrer, the CO2 permeability came to 56.9 Barrer, the H2 permeability came to 86.7 Barrer and the N2 permeability stood at 3.72 Barrer. In addition, the O2 permeability is 15.7 Barrer.
Take `*CC(CCl)O*` (repeat unit): the H2 permeability amounted to 8.9 Barrer, the N2 permeability is 0.44 Barrer and the O2 permeability turned out to be 1.05 Barrer.
`*C(=C(*)c1ccc(C(C)(C)C)cc1)c1ccccc1` (repeat unit) returned a CO2 permeability of 6200 Barrer, an N2 permeability of 930 Barrer and an O2 permeability of 1710 Barrer.
Consider `*Oc1ccc(C(c2ccc(Oc3ccc(C(=O)c4ccc(C(c5ccc(C(=O)c6ccc(*)cc6)cc5)(C(F)(F)F)C(F)(F)F)cc4)cc3)cc2)(C(F)(F)F)C(F)(F)F)cc1` (repeat unit), for which the CH4 permeability is 0.477 Barrer, the CO2 permeability worked out at 11.5 Barrer, the H2 permeability came to 31.4 Barrer and the N2 permeability worked out at 0.76 Barrer. The O2 permeability was found to be 3.7 Barrer.
As for `*c1ccc2c(c1C)N1Cc3ccc(N4C(=O)c5ccc(C(c6ccc7c(c6)C(=O)N(*)C7=O)(C(F)(F)F)C(F)(F)F)cc5C4=O)c(C)c3N(C2)C1` (repeat unit), the CH4 permeability was found to be 6.3 Barrer, the CO2 permeability was 190 Barrer, the H2 permeability was found to be 322 Barrer and the N2 permeability was determined as 10 Barrer. This compound also showed an O2 permeability of 50 Barrer.
For `*=CC1CC(C=*)C2C(=O)N(C3CCCCC3)C(=O)C12` (repeat unit) the same measures were 0.8 Barrer, 13.7 Barrer, 16.1 Barrer, 0.52 Barrer and 2.21 Barrer.
On the same counts, the results for `*c1ccc(Oc2ccc(C(c3ccc(Oc4ccc(N5C(=O)c6ccc(C(c7ccc8c(c7)C(=O)N(*)C8=O)(C(F)(F)F)C(F)(F)F)cc6C5=O)cc4)cc3)(C(F)(F)F)C(F)(F)F)cc2)cc1` (repeat unit) are 0.515 Barrer, 19 Barrer, 46.7 Barrer, 0.982 Barrer and 5.27 Barrer.
`*C(=C(*)c1ccc2c(c1)C(C)(C)CC2(C)C)c1ccc(Br)cc1` (repeat unit): the CH4 permeability worked out at 22400 Barrer, the CO2 permeability turned out to be 32800 Barrer, the H2 permeability worked out at 20700 Barrer and the N2 permeability amounted to 9200 Barrer. Besides, the O2 permeability is 11400 Barrer.
Take `*c1ccc(Oc2ccc(-c3ccc(-c4ccc(Oc5ccc(N6C(=O)c7ccc(C(c8ccc9c(c8)C(=O)N(*)C9=O)(C(F)(F)F)C(F)(F)F)cc7C6=O)cc5)c(C(F)(F)F)c4)s3)cc2C(F)(F)F)cc1` (repeat unit): the CH4 permeability was determined as 1.68 Barrer, the CO2 permeability came out at 45.3 Barrer, the N2 permeability stood at 1.78 Barrer and the O2 permeability was determined as 11.7 Barrer.
`*NCCCCCCCCCCC(*)=O` (repeat unit): the CO2 permeability came out at 1 Barrer and the H2 permeability stood at 2.63 Barrer.
Consider `*c1cccc(Oc2ccc(C(c3ccc(Oc4cccc(N5C(=O)c6ccc(C(c7ccc8c(c7)C(=O)N(*)C8=O)(C(F)(F)F)C(F)(F)F)cc6C5=O)c4)cc3)(C(F)(F)F)C(F)(F)F)cc2)c1` (repeat unit), for which the CH4 permeability was 0.136 Barrer, the CO2 permeability is 6 Barrer, the H2 permeability turned out to be 21 Barrer and the N2 permeability was determined as 0.241 Barrer. The same compound returned an O2 permeability of 1.35 Barrer.
Consider `*c1ccc(Oc2ccc(-c3ccc(-c4ccc(Oc5ccc(N6C(=O)c7ccc(C(c8ccc9c(c8)C(=O)N(*)C9=O)(C(F)(F)F)C(F)(F)F)cc7C6=O)cc5)c(C(F)(F)F)c4)cc3)cc2C(F)(F)F)cc1` (repeat unit), for which the CH4 permeability is 1.19 Barrer, the CO2 permeability came to 33.1 Barrer, the N2 permeability came out at 2.87 Barrer and the O2 permeability is 15.2 Barrer.
In turn, `*OCC(*)CCl` (repeat unit) came in with a CH4 permeability of 0.657 Barrer, a CO2 permeability of 8 Barrer and an N2 permeability of 0.24 Barrer.
`*c1ccc(C(c2ccc(N3C(=O)c4ccc(C(=O)c5ccc6c(c5)C(=O)N(*)C6=O)cc4C3=O)cc2)(C(F)(F)F)C(F)(F)F)cc1` (repeat unit) registered a CH4 permeability of 0.191 Barrer, a CO2 permeability of 17.5 Barrer, an H2 permeability of 30.8 Barrer and an N2 permeability of 0.375 Barrer. This compound also returned an O2 permeability of 2.18 Barrer.
On to `*c1cccc(N2C(=O)c3ccc(C(c4ccc5c(c4)C(=O)N(*)C5=O)(C(F)(F)F)C(F)(F)F)cc3C2=O)c1` (repeat unit), for which the CH4 permeability amounted to 0.163 Barrer, the CO2 permeability amounted to 9.7 Barrer, the H2 permeability was determined as 35.5 Barrer and the N2 permeability is 0.419 Barrer. Also, the O2 permeability came to 2.79 Barrer.
In turn, `*Oc1ccc(S(=O)(=O)c2ccc(Oc3c(C)cc(C(c4cc(C)c(*)c(C)c4)(C(F)(F)F)C(F)(F)F)cc3C)cc2)cc1` (repeat unit) displayed a CH4 permeability of 1.61 Barrer, a CO2 permeability of 72 Barrer, an H2 permeability of 70.7 Barrer and an N2 permeability of 4 Barrer. The O2 permeability is 18 Barrer.
For `*C/C=C(/C)C*` (repeat unit) the same measures were 29.6 Barrer, 153 Barrer, 49 Barrer, 8.75 Barrer and 23.3 Barrer.
Turning to `*CCO*` (repeat unit), the CH4 permeability stood at 4.85 Barrer, the CO2 permeability is 40.5 Barrer, the H2 permeability stood at 6.9 Barrer and the N2 permeability was 1.32 Barrer. The O2 permeability is 4.34 Barrer.
For `*c1ccc(Oc2ccc(N3C(=O)c4ccc(C(c5ccc6c(c5)C(=O)N(*)C6=O)(C(F)(F)F)C(F)(F)F)cc4C3=O)cc2)cc1` (repeat unit) the same measures were 0.407 Barrer, 20.6 Barrer, 44 Barrer, 0.797 Barrer and 4.21 Barrer.
`*Oc1c(C)cc(*)cc1C` (repeat unit) displayed a CH4 permeability of 4.1 Barrer, a CO2 permeability of 66 Barrer, an H2 permeability of 68.7 Barrer and an N2 permeability of 3.5 Barrer. The same compound came in with an O2 permeability of 14.6 Barrer.
On the same counts, the results for `*Oc1cc2c(cc1O*)C1(c3cc(C)ccc3-2)c2cc(C)ccc2-c2cc3c(cc21)Oc1c(C#N)c(*)c(*)c(C#N)c1O3` (repeat unit) are 582 Barrer, 8500 Barrer, 4430 Barrer, 380 Barrer and 1510 Barrer.
